Laboratory results from patent publication US20050227994A1, “Decomposition inhibitor for extracellular matrix of cartilage” (Shionogi & Co., Ltd., priority 2002, published 2005).

The compounds below were run against T1, MMP-13 (Homo sapiens, UniProt P45452) (assay: Assay for inhibitory activities on MMP-13). Conditions: catalytic domain, substrate MOCAc-Pro-Leu-Gly-Leu-A2Pr(DNP)-Ala-Arg-NH2; read-out: MMP-13 (IC50μM).
T1 construct: catalytic domain (^104Tyr˜^267Gly) was amplified with RT-PCR; His-tag; enterokinase digestion-site; made in house
Assay type: biochemical
Description: In regard to MMP-13, mRNA was prepared from carcinoma cell SW1353 derived from human cartilage stimulate by IL-1, TNF and catalytic domain (^[…]) was amplified with RT-PCR. This was cloned in Escherichia. coli expression vector […] inserted with His-tag sequence and enterokinase digestion-site, induced and expressed by IPTG (Isopropyl-β-D-thiogalactopyranoside) and expressed in a insoluble fraction. Isolation of MMP-13 from an insoluble fraction was carried out by dissolving in modifier (6M urea) by a usual method and purification with metal chelate chromatography (Ni […] Sepharose). […] The enzymatic activity on MMP was analyzed by the method described in “C. Graham Knight, Frances Willenbrock and Gillian Murphy: A novel coumarin-labelled peptide for sensitive continuous assays of the matrix metalloproteinases: […] The substrate: MOCAc-[…] was purchased from Peptide Institute, Inc., Osaka, Japan.

SMILES | IC50
Cc1ccc(-c2ccc(S(=O)(=O)NC(C(=O)O)C(C)C)s2)cc1 (stereo not shown) [Compound F-20] | 0.811 µM
COc1ccc2cc(C#Cc3ccc(S(=O)(=O)N[C@H](Cc4ccccc4)C(=O)O)s3)ccc2c1 [Compound H-12] | 0.15 µM
C[C@@H](NS(=O)(=O)c1ccc(-c2ncc(-c3ccc4ccccc4c3)s2)cc1)C(=O)O [Compound A-12] | 0.012 µM
CSc1ccc(-c2ccc(S(=O)(=O)NC(Cc3ccccc3)C(=O)O)cc2)cc1 (stereo not shown) [Compound E-30] | 0.0026 µM
O=C(O)C[C@@H](NS(=O)(=O)c1ccc(-c2ncc(-c3ccc4c(c3)OCO4)s2)cc1)C(=O)O [Compound A-20] | 0.0183 µM
C[C@@H](NS(=O)(=O)c1ccc(C#Cc2ccc(F)c(F)c2)s1)C(=O)O [Compound H-11] | 0.573 µM
CSc1ccc(-c2ccc(S(=O)(=O)NC(Cc3ccccc3)C(=O)O)cc2)cc1 (stereo not shown) [Compound E-6] | 0.0026 µM
Cc1ccc(-c2ccc(S(=O)(=O)N[C@H](Cc3c[nH]c4ccccc34)C(=O)O)cc2)cc1 [Compound E-2] | 0.00877 µM
CCCCc1ccc(-c2ccc(-c3ccc(S(=O)(=O)N[C@@H](C(=O)O)C(C)C)cc3)s2)cc1 [Compound K-2] | 0.0116 µM
O=C(O)[C@H](CO)NS(=O)(=O)c1ccc(C#Cc2ccc3c(c2)OCO3)cc1 [Compound G-12] | 0.147 µM
C[C@H](NS(=O)(=O)c1ccc(-c2ncc(-c3ccc4ccccc4c3)s2)cc1)C(=O)O [Compound A-13] | 0.019 µM
CNc1ccc(-c2ccc(S(=O)(=O)N[C@H](Cc3ccccc3)C(=O)O)s2)cc1 [Compound F-12] | 0.0318 µM
CN(C)c1ccc(-c2ccc(S(=O)(=O)N[C@H]3CCC[C@@H]3C(=O)O)s2)cc1 [Compound O-3] | 0.353 µM
COc1ccc(-c2cnc(-c3ccc(S(=O)(=O)N[C@H](CCC(=O)O)C(=O)O)cc3)s2)cc1 [Compound A-4] | 0.0024 µM
CSc1ccc(-c2ccc(S(=O)(=O)N[C@H](CCC(=O)O)C(=O)O)cc2)cc1 [Compound E-10] | 0.0236 µM
CSc1ccc(-c2ccc(S(=O)(=O)NC(C)C(=O)O)cc2)cc1 (stereo not shown) [Compound E-4] | 0.0209 µM
Cc1ccc(C#Cc2ccc(S(=O)(=O)N[C@H](CCC(=O)O)C(=O)O)s2)cc1 [Compound H-8] | 0.151 µM
Cc1ccc(C#Cc2ccc(S(=O)(=O)N[C@H](Cc3ccccc3)C(=O)O)s2)cc1F [Compound H-13] | 0.0604 µM
C=Cc1ccc(-c2ccc(S(=O)(=O)N[C@@H](C(=O)O)C(C)C)s2)cc1 [Compound F-26] | 0.0101 µM
COc1ccc(-c2cnc(-c3ccc(S(=O)(=O)N[C@H](CCSC)C(=O)O)cc3)s2)cc1 [Compound A-3] | 0.0023 µM
O=C(O)[C@@H](Cc1c[nH]c2ccccc12)NS(=O)(=O)c1ccc(-c2ccc(F)cc2)cc1 [Compound E-27] | 0.036 µM
O=C(O)[C@H](Cc1c[nH]c2ccccc12)NS(=O)(=O)c1ccc(C#Cc2ccc3ccccc3c2)cc1 [Compound G-6] | 0.893 µM
CCc1ccc(-c2ccc(S(=O)(=O)NC(C(=O)O)C(C)C)cc2)cc1 (stereo not shown) [Compound E-18] | 0.0204 µM
O=C(O)[C@@H]1[C@@H](NS(=O)(=O)c2ccc(-c3ccc(N4CCCC4)cc3)s2)[C@H]2C=C[C@@H]1C2 [Compound O-10] | 0.6 µM

SMILES | IC50
NCCc1ccc(-n2nnc(-c3ccc(S(=O)(=O)N[C@H](Cc4ccccc4)C(=O)O)cc3)n2)cc1 [Compound I-3] | 0.029 µM
CSCC[C@H](NS(=O)(=O)c1ccc(-c2ccc(SC)cc2)cc1)C(=O)O [Compound E-8] | 0.0105 µM
CC(C)[C@@H](NS(=O)(=O)c1ccc(-c2ncc(-c3ccc4c(c3)OCO4)s2)cc1)C(=O)O [Compound A-18] | 0.0052 µM
CCCCc1ccc(-n2nnc(-c3ccc(S(=O)(=O)NC4(C(=O)O)CCCCC4)cc3)n2)cc1 [Compound O-4] | 0.0114 µM
Cc1ccc(-c2ccc(-c3ccc(S(=O)(=O)N[C@H](Cc4ccccc4)C(=O)O)s3)s2)cc1 [Compound L-3] | 0.109 µM
CSc1ccc(-c2ccc(S(=O)(=O)NC(Cc3ccccc3)C(=O)O)s2)cc1 (stereo not shown) [Compound F-24] | 0.0831 µM
CS(=O)(=O)OCCc1ccc(-n2nnc(-c3ccc(S(=O)(=O)N[C@H](Cc4ccccc4)C(=O)O)cc3)n2)cc1 [Compound I-4] | 0.0082 µM
CC(C)[C@@H](NS(=O)(=O)c1ccc(-c2ccc(-c3ccc4ccccc4c3)cc2)cc1)C(=O)O [Compound E-22] | 0.0139 µM
O=C(O)[C@@H](Cc1ccccc1)NS(=O)(=O)c1ccc(-c2nc(-c3ccc(Cl)cc3)no2)cc1 [Compound D-2] | 0.141 µM
CC(C)[C@@H](NS(=O)(=O)c1ccc(C#Cc2ccc(O)cc2)cc1)C(=O)O [Compound G-3] | > 10 µM
O=C(O)[C@@H](Cc1ccccc1)NS(=O)(=O)c1ccc(C#Cc2ccc3ccccc3c2)cc1 [Compound G-5] | > 10 µM
CSc1ccc(-c2cnc(-c3ccc(S(=O)(=O)N[C@H](C(=O)O)C(C)C)cc3)s2)cc1 [Compound A-26] | 0.00045 µM
CSc1ccc(-c2ccc(-c3ccc(S(=O)(=O)N[C@@H](C(=O)O)C(C)C)cc3)cc2)cc1 [Compound E-21] | 0.002 µM
CSc1ccc(-c2cnc(-c3ccc(S(=O)(=O)N[C@@H](C)C(=O)O)cc3)s2)cc1 [Compound A-27] | 0.001 µM
CC(C)[C@H](NS(=O)(=O)c1ccc(-c2ccc(N3CCCC3)cc2)s1)C(=O)O [Compound F-18] | 0.032 µM
CSCC[C@@H](NS(=O)(=O)c1ccc(-c2ncc(-c3ccc(Cl)c(Cl)c3)s2)cc1)C(=O)O [Compound A-15] | 0.0135 µM
CSc1ccc(-c2ccc(S(=O)(=O)N3CCNC(=O)C3C)cc2)cc1 (stereo not shown) [Compound O-7] | 0.883 µM
CSCC[C@H](NS(=O)(=O)c1ccc(-c2ccc(C(C)=O)cc2)s1)C(=O)O [Compound F-25] | 0.106 µM
O=C(O)CNS(=O)(=O)c1ccc(-c2ccc(N3CCCC3)cc2)s1 [Compound F-13] | 0.033 µM
CC(=O)Oc1ccc(C#Cc2ccc(S(=O)(=O)N[C@H](Cc3c[nH]c4ccccc34)C(=O)O)cc2)cc1 [Compound G-1] | 0.046 µM
CSCC[C@@H](NS(=O)(=O)c1ccc(-c2ccc(SC)cc2)s1)C(=O)O [Compound F-3] | 0.007 µM
CC(C)(C)c1ccc(-c2ccc(S(=O)(=O)NC(Cc3ccccc3)C(=O)O)cc2)cc1 (stereo not shown) [Compound E-25] | 0.39 µM
CC(C)c1ccc(-c2nc(-c3ccc(S(=O)(=O)N[C@H](CC(=O)O)C(=O)O)cc3)no2)cc1 [Compound C-7] | 0.0196 µM
O=C(O)[C@@H](Cc1ccccc1)NS(=O)(=O)c1ccc(-c2ccc3ccccc3c2)s1 [Compound N-4] | 0.07 µM

SMILES | IC50
CCC(C)[C@H](NS(=O)(=O)c1ccc(-c2ncc(-c3ccccc3)s2)cc1)C(=O)O (stereo partly shown) [Compound A-1] | 0.012 µM
COc1ccc(-c2cnc(-c3ccc(S(=O)(=O)N[C@H](CCC(=O)O)C(=O)O)cc3)o2)cc1 [Compound B-1] | 0.0199 µM
CSCC[C@@H](NS(=O)(=O)c1ccc(-c2ccc(-c3ccc(C)cc3)s2)cc1)C(=O)O [Compound K-4] | 0.0938 µM
CCc1ccc(-c2nc(-c3ccc(S(=O)(=O)N[C@H](Cc4ccccc4)C(=O)O)cc3)no2)cc1 [Compound C-2] | 0.027 µM
Cc1ccc(C#Cc2ccc(S(=O)(=O)N[C@H](Cc3ccccc3)C(=O)O)cc2[N+](=O)[O-])cc1 [Compound G-4] | > 10 µM
CSCC[C@@H](NS(=O)(=O)c1ccc(-c2ncc(-c3ccc4c(c3)OCO4)s2)cc1)C(=O)O [Compound A-19] | 0.0092 µM
C[C@@H](NS(=O)(=O)c1ccc(-c2ncc(-c3ccc4c(c3)OCO4)s2)cc1)C(=O)O [Compound A-17] | 0.0065 µM
O=C(O)[C@H](Cc1ccccc1)NS(=O)(=O)c1ccc(-n2nnc(-c3ccc4ccccc4c3)n2)cc1 [Compound J-3] | > 10 µM
O=C(O)[C@@H](Cc1ccccc1)NS(=O)(=O)c1ccc(-c2ncc(-c3ccc(Cl)cc3)o2)cc1 [Compound B-3] | 0.0443 µM
CC(C)C[C@@H](NS(=O)(=O)c1ccc(C#Cc2ccc3[nH]c(=O)sc3c2)cc1)C(=O)O [Compound G-15] | 1.09 µM
Cc1ccc(C#Cc2ccc(S(=O)(=O)Nc3cc(Cl)ccc3C(=O)O)s2)cc1 [Compound O-9] | > 10 µM
CSc1ccc(-c2ccc(S(=O)(=O)NC(CC(C)C)C(=O)O)s2)cc1 (stereo not shown) [Compound F-4] | 0.0094 µM
CSc1ccc(-c2ccc(S(=O)(=O)N[C@H](CO)C(=O)O)cc2)cc1 [Compound E-12] | 0.0165 µM
O=C(O)[C@@H](Cc1ccccc1)NS(=O)(=O)c1ccc(C#Cc2cccc3ccccc23)s1 [Compound H-7] | > 10 µM
Cc1ccc(-c2ccc(-c3ccc(S(=O)(=O)N[C@H](C)C(=O)O)cc3)s2)cc1 [Compound K-3] | 0.095 µM
O=C(O)CCCNS(=O)(=O)c1ccc(-c2ccc(N3CCCC3)cc2)s1 [Compound O-6] | 3.14 µM
Cc1ccc(-c2ccc(S(=O)(=O)N[C@H](Cc3c[nH]c4ccccc34)C(=O)O)s2)cc1 [Compound F-10] | 0.21 µM
CCCCc1ccc(-c2noc(-c3ccc(S(=O)(=O)N[C@H](Cc4ccccc4)C(=O)O)cc3)n2)cc1 [Compound D-3] | 0.1 µM
Cc1ccc(-c2ccc(-c3ccc(S(=O)(=O)N[C@H](CC(C)C)C(=O)O)cc3)s2)cc1 [Compound K-6] | 0.225 µM
O=C(O)[C@@H](Cc1ccccc1)NS(=O)(=O)c1ccc(C#Cc2ccc3ccccc3c2)s1 [Compound H-2] | > 10 µM
CCSc1ccc(-c2ccc(S(=O)(=O)NC(Cc3ccccc3)C(=O)O)cc2)cc1 (stereo not shown) [Compound E-16] | 0.0142 µM
CCSc1ccc(-c2ccc(S(=O)(=O)NC(C(=O)O)C(C)CC)cc2)cc1 (stereo not shown) [Compound E-17] | 0.0067 µM
